Experiment [1] deals with T1, human recombinant serotonin (5-Hydroxytryptamine) 5-HT2C receptor (Homo sapiens, UniProt P28335).
T1 construct: expressed in transfected cells; host or cells: Chinese hamster ovary (CHO-K1) cells
T1 sequence (P28335 33-458): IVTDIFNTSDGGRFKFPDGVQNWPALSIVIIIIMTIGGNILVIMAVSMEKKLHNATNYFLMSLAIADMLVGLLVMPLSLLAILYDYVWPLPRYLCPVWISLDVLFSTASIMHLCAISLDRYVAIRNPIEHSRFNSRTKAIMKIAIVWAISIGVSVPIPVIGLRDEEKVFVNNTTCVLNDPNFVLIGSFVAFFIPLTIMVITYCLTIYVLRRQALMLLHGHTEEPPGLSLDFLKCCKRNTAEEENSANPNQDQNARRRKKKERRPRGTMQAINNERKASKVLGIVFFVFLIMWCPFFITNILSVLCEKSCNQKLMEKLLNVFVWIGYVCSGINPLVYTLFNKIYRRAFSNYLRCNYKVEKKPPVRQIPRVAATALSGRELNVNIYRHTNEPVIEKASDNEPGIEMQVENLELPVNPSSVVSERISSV
Kind of experiment: Serotonin 5-HT2C radioligand binding assay ([3H]Mesulergine). As to conditions: compound at 1 μM; 1 nM [3H]Mesulergine; CHO-K1 cells; read-out: Percent Inhibition of ligand binding, Serotonin (1 μM) 5-HT2C. The procedure: Compounds of the invention were incubated with 1 nM [^3H]Mesulergine for 60 min at 25° C. Non-specific binding was estimated in the presence of 1 μM Mianserin. Receptor proteins were filtered and washed, the filters were then counted to determine [^3H]Mesulergine specifically bound. Compounds were screened at 1 μM or lower, using 1% DMSO as vehicle. Biochemical assay results are presented as the percent inhibition of specific binding in Table 4.

Experiment [2] has as its target human recombinant histamine H1 receptor (Homo sapiens, UniProt P35367). Kind of experiment: Histamine H1 radioligand binding assay ([3H]Pyrilamine). As to conditions: compound at 1 μM, receptor expressed in CHO cells. The method in brief: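 Membranes from CHO cells expressing the receptor, in 50 mM Tris-HCl pH 7.4 with 2 mM MgCl2, 100 mM NaCl and 250 mM sucrose, incubated with 1.2 nM [3H]pyrilamine for 180 min at 25° C; nonspecific binding defined with 1 μM pyrilamine.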

As usually defined, the inhibition is the change of the read-out against control, counted positive when it falls.

Chain of human recombinant histamine H1 receptor (P35367 whole entry): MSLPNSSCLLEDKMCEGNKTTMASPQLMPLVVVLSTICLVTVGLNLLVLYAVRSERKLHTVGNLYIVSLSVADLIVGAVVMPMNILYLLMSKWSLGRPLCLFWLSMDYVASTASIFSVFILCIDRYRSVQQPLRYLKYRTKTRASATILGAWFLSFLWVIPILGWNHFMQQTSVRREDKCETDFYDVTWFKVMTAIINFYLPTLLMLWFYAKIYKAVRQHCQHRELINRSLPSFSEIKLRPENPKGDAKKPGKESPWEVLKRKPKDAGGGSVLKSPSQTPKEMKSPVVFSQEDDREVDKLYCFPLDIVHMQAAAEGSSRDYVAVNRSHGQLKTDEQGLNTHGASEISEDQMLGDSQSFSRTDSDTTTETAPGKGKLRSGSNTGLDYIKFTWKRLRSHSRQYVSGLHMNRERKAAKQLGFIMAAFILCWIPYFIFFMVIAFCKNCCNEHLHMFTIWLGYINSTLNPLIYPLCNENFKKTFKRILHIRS

For the compound `CN1CCc2c(c3cc(Cl)ccc3n2CC(=O)c2ccc(F)cc2)C1` [Compound 1-37, 2-(8-chloro-2-methyl-3,4-dihydro-1H-pyrido[4,3-b]indol-5(2H)-yl)-1-(4-fluorophenyl)ethanone], the inhibition at 1 µM amounted to 97% in experiment [1] and 83% in experiment [2].
With `Cc1ccc2c(c1)c1c(n2CC(=O)c2ccccc2)CCN(C)C1` [Compound 1-35, 2-(2,8-dimethyl-3,4-dihydro-1H-pyrido[4,3-b]indol-5(2H)-yl)-1-phenylethanone], the results for the inhibition at 1 µM in experiment [1] and in experiment [2] were 75% and 52%, respectively.
For `CN1CCc2c(c3cc(Cl)ccc3n2CC(=O)c2ccc(Cl)cc2)C1` [Compound 1-38, 2-(8-chloro-2-methyl-3,4-dihydro-1H-pyrido[4,3-b]indol-5(2H)-yl)-1-(4-chlorophenyl)ethanone], the inhibition at 1 µM in experiment [1] amounted to 101%; in experiment [2] it was 91%.
`Cc1ccc2c(c1)c1c(n2CCc2ccc(C)nc2)CCN(CCCO)C1` [Compound 1-42, 3-(8-methyl-5-(2-(6-methylpyridin-3-yl)ethyl)-3,4-dihydro-1H-pyrido[4,3-b]indole-2(5H)-yl)propan-1-ol]: the values for the inhibition at 1 µM in experiment [1] and in experiment [2] were 90% and 93%, respectively.
In the same order, the values of `Cc1ccc2c(c1)c1c(n2CCc2ccc(C(F)(F)F)nc2)CCNC1` [Compound 1-41, 8-methyl-5-(2-(6-(trifluoromethyl)pyridin-3-yl)ethyl)-2,3,4,5-tetrahydro-1H-pyrido[4,3-b]indole] are 41% and 72%.
For the compound `Cc1ccc2c(c1)c1c(n2CC(=O)c2ccc(F)cc2)CCN(C)C1` [Compound 1-39, 2-(2,8-dimethyl-3,4-dihydro-1H-pyrido[4,3-b]indol-5(2H)-yl)-1-(4-fluorophenyl)ethanone], the inhibition at 1 µM in experiment [1] is 104%; in experiment [2] it was 86%.
In the same order, the values of `CN1CCc2c(c3cc(Cl)ccc3n2CC(=O)c2ccccc2)C1` [Compound 1-36, 2-(8-chloro-2-methyl-3,4-dihydro-1H-pyrido[4,3-b]indol-5(2H)-yl)-1-phenylethanone] are 94% and 84%.
For the compound `Cc1ccc2c(c1)c1c(n2CCc2ccc(CCCN)nc2)CCN(C)C1` [Compound 1-40, 3-(5-(2-(2,8-dimethyl-3,4-dihydro-1H-pyrido[4,3-b]indol-5(2H)-yl)ethyl)pyridin-2-yl)propan-1-amine], the inhibition at 1 µM in experiment [1] came out at 91%; in experiment [2], 81%.
Taken in the same sequence, the figures for `Cc1ccc2c(c1)c1c(n2CCc2ccc(C)nc2)CCN(CCC#N)C1` [Compound 1-34, 3-(8-methyl-5-(2-(6-methylpyridin-3-yl)ethyl)-3,4-dihydro-1H-pyrido[4,3-b]indol-2(5H)-yl)propanenitrile] were 16% and 65%.

The values are drawn from US9255094B2, “Pyrido[4,3-B]indoles and methods of use” (Medivation Technologies, Inc., priority 2009, dated 2016).
